From patent publication US9586952B2, “Polycyclic estrogen receptor modulators and uses thereof” (SERAGON PHARMACEUTICALS, INC., priority 2013, dated 2017)

Tests used:
ER-α = target: T1, ER-α (Homo sapiens, UniProt P03372); experiment: Breast Cancer Cell ER-α In Cell Western Assay (SP1); format: cell-based; settings: MCF-7 cells, 4 or 24 hr post compound addition, SP1 antibody; for Emax: MCF7, read-out: ER-α In Cell Western Assay (SP1) Max Response; for DC50: read-out: ER-α In Cell Western Assay (SP1) IC50
T1 construct: endogenous in cells; host or cells: MCF-7
T1 sequence (P03372 1-595): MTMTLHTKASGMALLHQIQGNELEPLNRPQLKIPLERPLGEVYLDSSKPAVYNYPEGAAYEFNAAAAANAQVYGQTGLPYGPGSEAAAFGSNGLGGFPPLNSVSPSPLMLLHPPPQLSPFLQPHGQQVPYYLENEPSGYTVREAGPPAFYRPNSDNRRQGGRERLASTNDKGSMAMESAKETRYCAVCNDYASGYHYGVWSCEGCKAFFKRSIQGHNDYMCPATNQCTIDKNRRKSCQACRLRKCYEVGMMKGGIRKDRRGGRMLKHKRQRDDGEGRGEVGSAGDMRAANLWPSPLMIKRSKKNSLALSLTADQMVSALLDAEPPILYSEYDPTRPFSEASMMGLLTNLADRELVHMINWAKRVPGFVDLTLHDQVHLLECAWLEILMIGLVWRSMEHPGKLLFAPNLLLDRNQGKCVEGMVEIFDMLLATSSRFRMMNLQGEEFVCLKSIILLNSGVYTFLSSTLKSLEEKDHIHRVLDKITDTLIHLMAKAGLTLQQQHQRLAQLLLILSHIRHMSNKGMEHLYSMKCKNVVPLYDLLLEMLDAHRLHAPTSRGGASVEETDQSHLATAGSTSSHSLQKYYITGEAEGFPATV
Method: MCF-7 cells were adjusted to a concentration of 200,000 cells per mL in RPMI containing 10% charcoal-stripped FBS and 20 mM HEPES. 16 microliters of the cell suspension (3200 cells) was added to each well of a poly-D-lysine 384 well plate, and the cells were incubated overnight to allow the cells to adhere. The following day an eleven point, serial semilog dilution of each compound was added to the cells in 16 μL at a final concentration ranging from 0.3-0.000003 μM. At 4 or 24 hr post compound addition, the cells were fixed (10% formalin in PBS) for 20 minutes. Cells were permeablized in PBS 0.1% Triton and blocked with LICOR blocking buffer (50 μl/well, 90′). The wells were then incubated overnight at 4° C. with SP1 rabbit monoclonal Ab (Thermo Scientific) diluted 1:1000 in LICOR blocking buffer/0.1% Tween-20. Wells which were treated with blocking buffer with Tween but no antibody were used as a background control. Wells were washed with 0.1% Tween-20/PBS and then incubated in goat anti-rabbit IRDye™ 800 CW (LICOR Inc.; 1:10000) and DRAQ5 DNA dye (1:2000 for 2 mM stock) diluted in LICOR blocking buffer containing 0.1% Tween-20 and 0.01% SDS for 60 minutes. Cells were washed (50 μl/well, 5′ each) in 0.1% Tween-20/PBS. Plates were scanned on a LICOR Odyssey infrared imaging system. Integrated intensities in the 800 nm channel and 700 nm channel were measured to determine levels of ER and DNA respectively. Percent ER levels were determined as follows: (Integrated intensity 800 nm sample/integrated intensity 700 nm sample)/(Integrated intensity 800 nm untreated cells/integrated intensity 700 nm untreated cells)×100=% ER levels.

MCF-7 cells = experiment: MCF7 Viability Assay (Breast Cancer Cell Viability Assay); format: cell-based; settings: 5 days' compound exposure, CellTiter-Glo; for IC50: Homo sapiens, MCF7, 120 h
Method: MCF-7 cells were adjusted to a concentration of 20,000 cells per mL in RPMI containing 10% FBS and 20 mM HEPES. 16 microliters of the cell suspension (320 cells) was added to each well of a 384 well plate, and the cells were incubated overnight to allow the cells to adhere. The following day an eleven point, serial semilog dilution of each compound was added to the cells in 16 μL at a final concentration ranging from 0.3-0.000003 μM. After 5 days' compound exposure, 16 μL of CellTiter-GLo (Promega, Madison Wis.) was added to the cells, and the relative luminescence units (RLUs) of each well were determined. CellTiter-Glo added to 32 μL of medium without cells was used to obtain a background value. The Percent viability of each sample was determined as follows: (RLU sample-RLU background/RLU untreated cells-RLU background)×100=% viability.

Emax (ER-α) [%] | DC50 (ER-α) [nM] | IC50 (MCF-7 cells) [nM] | Compound | MCF7 Viability Assay Max Response (MCF-7 cells)
≥ 40 | ≤ 100 | ≤ 100 | O=C(O)/C=C/c1ccc(/C(=C(\c2ccccc2)C2CCC2)c2ccc(-c3cn[nH]c3)cc2)cc1 [Example 1, (E)-3-(4-((E)-1-(4-(1H-Pyrazol-4-yl)phenyl)-2-cyclobutyl-2-phenylvinyl)phenyl)acrylic acid] | ++ (++ = a single % value ≧ 40%)
≥ 40 | ≤ 100 | ≤ 100 | CC/C(=C(/c1ccc(/C=C/C(=O)O)cc1)c1ccc(-c2cncs2)cc1)c1ccc(F)cc1Cl [Example 2, (E)-3-(4-((E)-2-(2-Chloro-4-fluorophenyl)-1-(4-(thiazol-5-yl)phenyl)but-1-en-1-yl)phenyl)acrylic acid] | ++ (++ = a single % value ≧ 40%)
≥ 40 | ≤ 100 | ≤ 100 | COc1ccc(/C(=C(\c2ccc(/C=C/C(=O)O)cc2)c2ccc(N3CCOCC3)cc2)C2CCC2)c(Cl)c1 [Example 4, (E)-3-(4-((E)-2-(2-Chloro-4-methoxyphenyl)-2-cyclobutyl-1-(4-morpholinophenyl)vinyl)phenyl)acrylic acid] | ++ (++ = a single % value ≧ 40%)
≥ 40 | ≤ 100 | ≤ 100 | N#Cc1ccc(/C(=C(\c2ccc(/C=C/C(=O)O)cc2)c2ccc(-c3cncs3)cc2)C2CCC2)c(Cl)c1 [Example 5, (E)-3-(4-((E)-2-(2-Chloro-4-cyanophenyl)-2-cyclobutyl-1-(4-(thiazol-5-yl)phenyl)vinyl)phenyl)acrylic acid] | ++ (++ = a single % value ≧ 40%)
≥ 40 | > 100 | > 100 | CC/C(=C(/c1ccc(/C=C/C(=O)O)cc1)c1cccc(-c2ccn[nH]2)c1)c1ccccc1 [Example 7, (E)-3-(4-((E)-1-(3-(1H-Pyrazol-5-yl)phenyl)-2-phenylbut-1-en-1-yl)phenyl)acrylic acid] | + (+ = a single % value < 40%)
≥ 40 | ≤ 100 | > 100 | CC/C(=C(/c1ccc(/C=C/C(=O)O)cc1)c1ccc(-c2nccs2)cc1)c1ccccc1 [Example 8, (E)-3-(4-((E)-2-Phenyl-1-(4-(thiazol-2-yl)phenyl)but-1-en-1-yl)phenyl)acrylic acid] | ++ (++ = a single % value ≧ 40%)
< 40 | > 100 | > 100 | CC/C(=C(/c1ccc(/C=C/C(=O)O)cc1)c1cccc(-c2nccs2)c1)c1ccccc1 [Example 11, (E)-3-(4-((E)-2-Phenyl-1-(3-(thiazol-2-yl)phenyl)but-1-en-1-yl)phenyl)acrylic acid] | + (+ = a single % value < 40%)
≥ 40 | ≤ 100 | > 100 | CC/C(=C(/c1ccc(/C=C/C(=O)O)cc1)c1ccc(-c2cccnc2)cc1)c1ccccc1 [Example 14, (E)-3-(4-((E)-2-Phenyl-1-(4-(pyridin-3-yl)phenyl)but-1-en-1-yl)phenyl)acrylic acid] | ++ (++ = a single % value ≧ 40%)
≥ 40 | ≤ 100 | ≤ 100 | CC/C(=C(/c1ccc(/C=C/C(=O)O)cc1)c1ccc(N2CCOCC2)cc1)c1ccccc1 [Example 16, (E)-3-(4-((E)-1-(4-Morpholinophenyl)-2-phenylbut-1-en-1-yl)phenyl)acrylic acid] | ++ (++ = a single % value ≧ 40%)

Further lines, the molecule ahead of its results:

Compound | Emax (ER-α) [%] | DC50 (ER-α) [nM] | IC50 (MCF-7 cells) [nM] | MCF7 Viability Assay Max Response (MCF-7 cells)
N#Cc1ccc(/C(=C(\c2ccc(/C=C/C(=O)O)cc2)c2ccc(-c3cn[nH]c3)cc2)C2CCC2)c(Cl)c1 [Example 3, (E)-3-(4-((E)-1-(4-(1H-Pyrazol-4-yl)phenyl)-2-(2-chloro-4-cyanophenyl)-2-cyclobutylvinyl)phenyl) acrylic acid] | ≥ 40 | ≤ 100 | ≤ 100 | ++ (++ = a single % value ≧ 40%)
CC/C(=C(/c1ccc(/C=C/C(=O)O)cc1)c1ccc(-c2ccn[nH]2)cc1)c1ccccc1 [Example 6, (E)-3-(4-((E)-1-(4-(1H-Pyrazol-5-yl)phenyl)-2-phenylbut-1-en-1-yl)phenyl)acrylic acid] | ≥ 40 | ≤ 100 | > 100 | ++ (++ = a single % value ≧ 40%)
CC/C(=C(/c1ccc(/C=C/C(=O)O)cc1)c1ccc(-c2cncs2)cc1)c1ccccc1 [Example 9, (E)-3-(4-((E)-2-Phenyl-1-(4-(thiazol-5-yl)phenyl)but-1-en-1-yl)phenyl)acrylic acid] | ≥ 40 | ≤ 100 | ≤ 100 | ++ (++ = a single % value ≧ 40%)
CC/C(=C(/c1ccc(/C=C/C(=O)O)cc1)c1ccc(-c2cscn2)cc1)c1ccccc1 [Example 10, (E)-3-(4-((E)-2-Phenyl-1-(4-(thiazol-4-yl)phenyl)but-1-en-1-yl)phenyl)acrylic acid] | ≥ 40 | ≤ 100 | > 100 | ++ (++ = a single % value ≧ 40%)
CC/C(=C(/c1ccc(/C=C/C(=O)O)cc1)c1cccc(-c2cscn2)c1)c1ccccc1 [Example 12, (E)-3-(4-((E)-2-Phenyl-1-(3-(thiazol-4-yl)phenyl)but-1-en-1-yl)phenyl)acrylic acid] | < 40 | > 100 | > 100 | + (+ = a single % value < 40%)
O=C(O)/C=C/c1ccc(/C(=C(\c2ccccc2)C2CCC2)c2ccc(-c3cncs3)cc2)cc1 [Example 13, (E)-3-(4-((E)-2-Cyclobutyl-2-phenyl-1-(4-(thiazol-5-yl)phenyl)vinyl)phenyl)acrylic acid] | ≥ 40 | ≤ 100 | ≤ 100 | ++ (++ = a single % value ≧ 40%)
CC/C(=C(/c1ccc(/C=C/C(=O)O)cc1)c1ccc(-c2cnsc2)cc1)c1ccccc1 [Example 15, (E)-3-(4-((E)-1-(4-(Isothiazol-4-yl)phenyl)-2-phenylbut-1-en-1-yl)phenyl)acrylic acid] | ≥ 40 | ≤ 100 | > 100 | ++ (++ = a single % value ≧ 40%)
CC/C(=C(/c1ccc(/C=C/C(=O)O)cc1)c1ccc(-n2ccnc2)cc1)c1ccccc1 [Example 17, (E)-3-(4-((E)-1-(4-(1H-Imidazol-1-yl)phenyl)-2-phenylbut-1-en-1-yl)phenyl)acrylic acid] | ≥ 40 | > 100 | > 100 | ++ (++ = a single % value ≧ 40%)
CC/C(=C(/c1ccc(/C=C/C(=O)O)cc1)c1ccc(-c2cnco2)cc1)c1ccccc1 [Example 18, (E)-3-(4-((E)-1-(4-(Oxazol-5-yl)phenyl)-2-phenylbut-1-en-1-yl)phenyl)acrylic acid] | ≥ 40 | ≤ 100 | ≤ 100 | ++ (++ = a single % value ≧ 40%)
